This is an account of results in patent publication US20100040711A1, “ZINC-CARNOSINE -BASED TREATMENT FOR NON ULCER (FUNCTIONAL ) DYSPEPSIA & IRRITABLE BOWEL SYNDROME IN HUMANS AND OTHER ANIMALS” (priority 2008, published 2010).

One data set relates to post-infectious IBS. As to conditions: recent study, Dunlap et al. 2003; cited from earlier work.
The subject of data set [1] is functional dyspepsia or irritable bowel syndrome. Description: Veterinary case reports: dogs diagnosed with functional dyspepsia or irritable bowel syndrome given zinc-carnosine. In kind it is in vivo. As to conditions: dog, 30 mg/day. An excerpt:
Ellie, a three year old, sixteen pound West Highland Terrier presented to vet with visible discomfort, loose stools and intermittent diarrhea. […] The diagnosis of functional dyspepsia or irritable bowel syndrome made.
Katelyn, a six year old, fourteen pound Boston Terrier presented to vet with visible discomfort, diarrhea, vomiting and inappetence. […] Blood tests indicated no abnormalities and a stool samples indicated the dog was parasite free. The diagnosis of functional dyspepsia or irritable bowel syndrome made.

For data set [2] the test system is unchanged. Description: Veterinary case report: cat diagnosed with functional dyspepsia or irritable bowel syndrome given zinc-carnosine. The format is in vivo. The following applies: 15 mg BID. An excerpt: A five year old, eight pound Siamese cat presented to vet with severe diarrhea, severe visible discomfort, inappetence and losing weight. […] Blood tests indicated no abnormalities and a stool samples indicated the cat was parasite free. The diagnosis of functional dyspepsia or irritable bowel syndrome made.

The conditions of data set [3]: based on current evidence; cited from earlier work.
Data set [4] deals with human umbilical vein endothelial cells. The following applies: cited from earlier work.
Data set [5] relates to human foreskin fibroblast cells. As to conditions: cited from earlier work.
For data set [6], the system named is human MCT3-E1 cells (osteoblasts). As to conditions: cited from earlier work.
The next data set has as its system water immersion stress. As to conditions: cited from earlier work.
Data set [7] relates to HCl-ethanol gastric damage. As to conditions: cited from earlier work.
Another data set concerns TNBS model of colitis. As to conditions: cited from earlier work.
In a further data set the test system is gastric ulcer. As to conditions: clinical trials, versus placebo; cited from earlier work.

Turning to `C[C@]12C=CC(=O)C=C1CC[C@@H]1[C@@H]2[C@@H](O)C[C@@]2(C)[C@H]1CC[C@]2(O)C(=O)CO` [predinisolone], the “efficacy for treating post-infectious IBS” value in the data set with post-infectious IBS is reported as “ineffective”.
As for Zinc-Carnosine, the “improvement of conditions (discomfort, diarrhea, vomiting, inappetence)” value in [1] (course during treatment) is “conditions improved on a daily basis”. Further, the “symptoms at check up” value in [1] (four week check up) and in [2] (four week check up) was “No further symptoms” in each case. The “improvement of condition (discomfort, loose stools, diarrhea)” value in data set [1] (two week and four week follow-up visits) was “significant improvement”. In data set [2] (within seven days), the “improvement of conditions (diarrhea, discomfort, inappetence, weight loss)” value is reported as “conditions improved significantly”. Besides, the side effects result in data set [3] is recorded as “little or no side effects”. For the same molecule, the “stimulation of growth (proliferation)” value in data set [4], in data set [5] and in data set [6] was “able to stimulate growth (proliferation)” each time. In addition, the “effect in animal model of gut ulceration and gross inflammation” value (in the data set on water immersion stress; in data set [7]; in the data set on TNBS model of colitis) was “beneficial effects” each time. Moreover, the “effect in treatment of gastric ulcer” value with gastric ulcer was “beneficial effect above placebo”.
